{"source": "paper PMC6823370", "about": "“A novel nucleoside rescue metabolic pathway may be responsible for therapeutic effect of orally administered cordycepin” (Scientific Reports, 2019)", "key": {"[1]": {"assay": "In vivo pharmacokinetics in rats after intravenous or oral cordycepin", "parameters": "species or system Sprague Dawley rats", "settings": "for AUC(0-t) / C0 / clearance: in vivo; for AUC(0-t) / C0 / AUC0→t/Dose of cordycepin: rat plasma; for AUC(0-t): read-out: AUC0→t of cordycepin; for C0: read-out: C0 of cordycepin; for clearance: read-out: CL of cordycepin (converted)", "experimental": "Protocols for the animal experiments in this study were reviewed and approved by the University of Nottingham Ethical Review Committee in accordance with the Animals [Scientific Procedures] Act 1986. Four male Sprague Dawley rats (Charles River Laboratories, UK) of 300–350 g body weight were used. The animals were housed in the Bio Support Unit, University of Nottingham at controlled temperature, 12 h light/dark cycle and free access to food and water. The animals were allowed to acclimatise for at least six days prior to any procedures.\nPrior to pharmacokinetic studies, jugular vein cannulation surgery was performed under general anaesthesia (<3% isoflurane inhalation) for blood sampling or intravenous drug administration. Following two nights of recovery from surgery, the animals were intravenously or orally administered with the PBS-based formulation (5.5 mg/mL cordycepin) developed in a previously reported study. The dose was 8 or 20 mg/kg for intravenous administration and 8 or 80 mg/kg for oral administration. […] When whole blood was analysed, an aliquot was withdrawn immediately after mixing with the pretreated pentostatin. Otherwise, the mixture was centrifuged (3000 g, 10 min) to obtain plasma and samples were stored within the storage conditions tested prior to analysis.\nSamples from Caco-2 permeability, in vitro determination of CordyTP formation and in vivo experiments were subjected to protein precipitation followed by LC-MS/MS analysis. To 50 µL of rat plasma sample, 150 µL of internal standard solution (1.67 µg/mL 2-chloroadenosine in methanol) was added. The samples were then vortex-mixed for 10 s and were centrifuged for 3 min at 17949 g. Supernatant (20 µL) was collected and diluted 10-fold with DDW before injection into the LC-MS/MS for analysis of cordycepin and 3′-deoxyinosine. For analysis of CordyTP, the supernatant was filtered using filter tubes mentioned above and injected without dilution. Tissue samples were homogenised using Bullet Blender Gold (Next Advance, Inc., Troy, NY) in methanol (1:3 w/v) and centrifuged for 3 min at 17949 g. The supernatant was filtered and injected for analysis of CordyTP or diluted 10-fold with DDW for analysis of cordycepin and 3′-deoxyinosine. The LC-MS/MS system was a API4000 QTrap (AB Sciex, Warrington, UK) equipped with HPLC setup of SCL10Avp controller, LC10ADvp pump and SILHTC autosampler (Shimadzu, Milton Keynes, UK). Three different methods were utilised for each compound and multiple reaction monitoring parameters of the MS/MS conditions are shown in Table 1. The HPLC conditions including stationary phases and specific mass spectrometry parameters are shown in Supplementary Information 2. The LC-MS/MS method for cordycepin was fully validated in terms of accuracy, precision, sensitivity, selectivity, linearity and sample storage stability in accordance with the Guidance for Industry, Bioanalytical Method Validation, (2018) published by the US FDA (refer to Supplementary Information 3 for validation procedures and results)[53].\nData are presented as mean ± standard deviation (SD). A two-tailed unpaired t-test was applied for assessment of statistical significance of differences between two groups. For three or more groups, the statistical significance was assessed by application of a one-way ANOVA followed by Tukey’s multiple comparisons test. A p-value lower than 0.05 was deemed statistically significant. Statistical analyses were conducted using GraphPad Prism version 7.01 (GraphPad Software, Inc., La Jolla, CA, USA). Pharmacokinetic parameters were obtained by non-compartmental analysis using Phoenix WinNonlin 6.3 software (Pharsight, Mountain View, CA, USA).\nFor calculation of pharmacokinetic parameters, the plasma concentration-time curve was plotted in a semi-log scale. From the plot, the elimination rate constant (ke) was calculated. Elimination half-life (t1/2) wasthen calculated using the following equation: […]"}, "[2]": {"assay": "Biorelevant solubility (FaSSGF, FaSSIF, FeSSIF)", "assay_type": "physicochemical", "settings": "thermodynamic from solid, compared with reported water solubility", "experimental": "The three biorelevant fluids of fasted state simulated gastric fluid (FaSSGF, pH 1.6), fasted state simulated intestinal fluid (FaSSIF, pH 6.5) and fed state simulated intestinal fluid (FeSSIF, pH 5.0) were prepared according to previously reported compositions. The test mixtures containing biorelevant fluids and excessive amount of cordycepin were shaken at 250 rpm, 37 °C for 2 h in the shaking incubator. The mixtures were then filtered using Costar Spin-X Centrifuge Tubes (Fisher Scientific, Loughborough, UK) at 2400 g for 5 min. The filtrate was subjected to analysis by HPLC-UV. The experiments were conducted in quadruplicates.\nSamples from studies of plasma stability, protein binding, biorelevant solubility and liver microsomal stability were subjected to liquid-liquid extraction and HPLC-UV analysis. To 100 µL of sample, internal standard (2′-deoxyadenosine) was spiked at 10 µg/mL and 300 µL of 0.1 M NaOH was added. Extraction solvent (3 mL) of ethyl acetate-isopropyl alcohol (85:15, v/v) was added and vortex-mixed for 10 min. Samples were then centrifuged at 1160 g for 5 min and the supernatant was transferred and dried under N2 gas. Dried samples were reconstituted with 100 uL of deionised distilled water (DDW) and 40 µL was injected into the HPLC-UV. The HPLC-UV setup was adopted from a validated method[22] with addition of a gradient scheme to elute the impurities from samples. Waters Alliance 2695 module with Waters 996 PDA detector was used for the HPLC-UV system with Capcell Pak C18 3 µm, 4.6 × 150 mm as the stationary phase. Mobile phase was a mixture of acetonitrile (A) and DDW (B) at flow rate 0.8 mL/min with a gradient scheme of the following: 0–9 min, B 94%; 9–14 min, B decreased to 20%; 14–24 min, B 20%; 24–26 min, B increased to 94%; and 26–35 min, B 94%. Calibration curves were constructed at a range of 10 – 20000 ng/mL and chromatograms were obtained at 259 nm of wavelength."}, "[3]": {"assay": "Plasma protein binding, ultrafiltration, rat plasma", "assay_type": "in vitro ADME", "settings": "read-out: fraction unbound (Fub) in plasma", "experimental": "Cordycepin was spiked into the plasma to give concentrations of 100, 500, 1000 and 5000 ng/mL, and the samples (300 µL) were incubated in the shaking incubator at 250 rpm and 37 °C for 1 h. Following incubation, 100 µL was withdrawn and analysed for Ct. The remaining sample was transferred to a filter device (Amicon Ultra-0.5 Centrifugal Filter Units, MWCO 3000, Merck Millipore, Cork, Ireland) and was centrifuged at 14,000 g for 10 min at room temperature. Filtrate was collected and analysed for Cf. The fraction unbound in plasma (Fub) was calculated by the equation: Cf/Ct × 100 = Fub. Non-specific binding of cordycepin to the filter device was tested at the same concentration range using phosphate buffered saline (PBS) instead of plasma. Experiments were conducted in quadruplicates.\nSamples from studies of plasma stability, protein binding, biorelevant solubility and liver microsomal stability were subjected to liquid-liquid extraction and HPLC-UV analysis. To 100 µL of sample, internal standard (2′-deoxyadenosine) was spiked at 10 µg/mL and 300 µL of 0.1 M NaOH was added. Extraction solvent (3 mL) of ethyl acetate-isopropyl alcohol (85:15, v/v) was added and vortex-mixed for 10 min. Samples were then centrifuged at 1160 g for 5 min and the supernatant was transferred and dried under N2 gas. […]"}, "[4]": {"settings": "male, Sprague Dawley, intravenous cordycepin 8 mg/kg"}, "[5]": {"settings": "male, Sprague Dawley, intravenous cordycepin 20 mg/kg"}}, "note": "Read-outs that look alike come from different tables or passages of the source.", "data": [{"molecule": "Nc1ncnc2c1ncn2[C@@H]1O[C@H](CO)C[C@H]1O", "note": "[cordycepin, 3′-deoxyadenosine]", "values": [{"measurement": "AUC(0-t)", "setting": "[1]; [4]", "value": "196 ± 94", "unit": "ng·h/mL"}, {"measurement": "C0", "setting": "[1]; [4]", "value": "890 ± 576", "unit": "ng/mL"}, {"measurement": "AUC(0-t)", "setting": "[1]; [5]", "value": "232 ± 106", "unit": "ng·h/mL"}, {"measurement": "C0", "setting": "[1]; [5]", "value": "12300 ± 8840", "unit": "ng/mL"}, {"measurement": "clearance", "setting": "[1]; male, Sprague Dawley, rat, intravenous cordycepin 8 mg/kg", "value": 1720, "unit": "mL/min/kg"}, {"measurement": "clearance", "setting": "[1]; male, Sprague Dawley, rat, intravenous cordycepin 20 mg/kg", "value": 1520, "unit": "mL/min/kg"}, {"measurement": "blood plasma ratio", "setting": "[1]; male, Sprague Dawley, rat, whole blood and plasma, intravenous, 20 mg/kg, intravenous cordycepin 20 mg/kg", "value": "0.68 ± 0.27"}, {"measurement": "AUC0→t/Dose of cordycepin", "setting": "[1]; intravenous cordycepin 8 mg/kg", "value": "25 ± 12", "unit": "ng·kg·h/mL/mg"}, {"measurement": "AUC0→t/Dose of cordycepin", "setting": "[1]; intravenous cordycepin 20 mg/kg", "value": "12 ± 5", "unit": "ng·kg·h/mL/mg"}, {"measurement": "increase of AUC when dose increased from 8 to 20 mg/kg", "setting": "[1]; rat, intravenous cordycepin", "value": 1.18, "unit": "fold"}, {"measurement": "increase of C0 when dose increased from 8 to 20 mg/kg", "setting": "[1]; rat, intravenous cordycepin", "value": 13.8, "unit": "fold"}, {"measurement": "blood/plasma ratio", "setting": "[1]; rat, intravenous cordycepin 20 mg/kg", "value": "< 1"}, {"measurement": "cordycepin in plasma after oral administration", "setting": "[1]; rat, oral cordycepin 8 or 80 mg/kg, any time point, limit of quantification 2 ng/mL", "value": "not detected in plasma at all"}, {"measurement": "solubility at 2 h", "setting": "[2]; FaSSGF, fassgf or other biorelevant, pH 1.6, 37 °C, read-out: solubility in FaSSGF", "value": "> 5000", "unit": "µg/mL"}, {"measurement": "solubility at 2 h", "setting": "[2]; FaSSIF, pH 6.5, 37 °C, read-out: solubility in FaSSIF", "value": "> 5000", "unit": "µg/mL"}, {"measurement": "solubility at 2 h", "setting": "[2]; FeSSIF, pH 5.0, 37 °C, read-out: solubility in FeSSIF", "value": "> 5000", "unit": "µg/mL"}, {"measurement": "fraction unbound at 1 h", "setting": "[3]", "value": "> 0.8"}]}]}
